The target of experiment [1] is T1, human GLP-1 receptor (Homo sapiens, UniProt P43220).
T1 construct: expressed in transfected cells; host or cells: BHK cells, clone FCW467-12A/KZ10-1 (parent line BHKTS13), further transfected with CRE luciferase
Kind of experiment: GLP-1 receptor binding (SPA, displacement of 125I-GLP-1). The gist of the method:
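Membranes from a stably transfected hamster cell line, 5-10 ug protein/sample, with WGA SPA beads and [125I]-GLP-1(7-36)NH2 at 0.06 nM final. Incubated 120 min at 30 °C with shaking, then counted.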

For experiment [2], the target named is T1, human GLP-1 receptor. As to the kind of experiment: In vitro potency (CRE luciferase; whole cells). The experiment is classed as cell-based. Conditions: for EC50: BHK cells; for EC50/pM (ratio 1% HSA/0% HSA): ratio of EC50 at 1% HSA to EC50 at 0% HSA. Details: EC50/pM (ratio 1% HSA/0% HSA): unit not given here. The method in brief:
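Stably transfected BHK cells carrying human GLP-1R and a CRE–firefly luciferase reporter, 5×10^3 cells/well in assay medium, run with 0% or 1% HSA in assay buffer.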

[3] abbreviates: Receptor binding affinity IC50 (high HSA), 2.0% HSA (high albumin).
[4] abbreviates: Receptor binding affinity IC50 (low HSA), 0.001% HSA (low albumin).
[5] abbreviates: In vitro potency (CRE luciferase) EC50 (0% HSA), 0% HSA.
The mark [6] stands for this setting: In vitro potency (CRE luciferase) EC50 (1% HSA), 1% HSA.

Numbered stars: 1 amine (or outer) side, 2 acyl side, 3 side chain; on linkers, the order of the positions; unused ones are H or OH. Square brackets hold non-standard residues; d marks the D form. Side chains are listed from the residue outwards. Peptide text beside a SMILES is read from it. * marks the point of attachment. Undecanoyl(11-OPh(4-COOH)) = O=C(O)c1ccc(OCCCCCCCCCCC(=O)*)cc1; γGlu = O=C(O)[C@H](CCC(=O)[*:2])N[*:1]; εLys = N[C@@H](CCCCN[*:1])C(=O)[*:2]; Aib = CC(C)(N)C(=O)O

T1 sequence (P43220 24-463): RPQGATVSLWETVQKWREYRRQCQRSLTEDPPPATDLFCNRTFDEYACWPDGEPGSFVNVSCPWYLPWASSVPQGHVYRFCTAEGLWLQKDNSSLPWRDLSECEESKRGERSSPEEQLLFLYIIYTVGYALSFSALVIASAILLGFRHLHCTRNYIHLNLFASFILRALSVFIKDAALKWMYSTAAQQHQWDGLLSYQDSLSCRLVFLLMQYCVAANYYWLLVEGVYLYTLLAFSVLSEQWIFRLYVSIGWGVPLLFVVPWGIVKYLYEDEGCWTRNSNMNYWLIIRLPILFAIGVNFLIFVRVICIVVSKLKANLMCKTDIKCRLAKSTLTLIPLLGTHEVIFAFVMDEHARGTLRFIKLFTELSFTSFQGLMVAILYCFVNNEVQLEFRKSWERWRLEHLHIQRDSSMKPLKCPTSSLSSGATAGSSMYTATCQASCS

For orientation: IC50 means the midpoint of a concentration-inhibition curve. The EC50 is the concentration that produces a half-maximal response. With `CC[C@H](C)[C@H](NC(=O)[C@H](Cc1ccccc1)NC(=O)[C@H](CCC(=O)O)NC(=O)[C@H](CCCCNC(=O)[C@@H](N)CCCCNC(=O)[C@@H](N)CCCCNC(=O)[C@H](CO)NC(=O)[C@H](CO)NC(=O)CC[C@H](NC(=O)CCCCCCCCCCOc1ccc(C(=O)O)cc1)C(=O)O)NC(=O)[C@H](C)NC(=O)[C@H](C)NC(=O)[C@H](CCC(N)=O)NC(=O)CNC(=O)[C@H](CCC(=O)O)NC(=O)[C@H](CC(C)C)NC(=O)[C@H](Cc1ccc(O)cc1)NC(=O)[C@H](CO)NC(=O)[C@H](CO)NC(=O)[C@@H](NC(=O)[C@H](CC(=O)O)NC(=O)[C@H](CO)NC(=O)[C@@H](NC(=O)[C@H](Cc1ccccc1)NC(=O)[C@@H](NC(=O)CNC(=O)[C@H](CCC(=O)O)NC(=O)C(C)(C)NC(=O)[C@@H](N)Cc1c[nH]cn1)[C@@H](C)O)[C@@H](C)O)C(C)C)C(=O)N[C@@H](C)C(=O)N[C@@H](Cc1c[nH]c2ccccc12)C(=O)N[C@@H](CC(C)C)C(=O)N[C@H](C(=O)N[C@@H](CCCNC(=N)N)C(=O)NCC(=O)N[C@@H](CCCNC(=N)N)C(=O)N[C@@H](CCCCNC(=O)[C@@H](N)CCCCNC(=O)[C@@H](N)CCCCNC(=O)[C@H](CO)NC(=O)[C@H](CO)NC(=O)CC[C@H](NC(=O)CCCCCCCCCCOc1ccc(C(=O)O)cc1)C(=O)O)C(=O)O)C(C)C` [Example 35], the IC50 on human GLP-1 receptor [1] (setting [3]) came out at 36 nM; on human GLP-1 receptor [1] (setting [4]) it was 0.08 nM. Besides, at human GLP-1 receptor [2] (setting [5]), the EC50 worked out at 0.0055 nM.
Regarding `CC[C@H](C)[C@H](NC(=O)[C@H](Cc1ccccc1)NC(=O)[C@H](CCC(=O)O)NC(=O)[C@H](CCCCNC(=O)[C@@H](N)CCCCNC(=O)[C@@H](N)CCCCNC(=O)COCCOCCNC(=O)COCCOCCNC(=O)CC[C@H](NC(=O)CCCCCCCCCCOc1ccc(C(=O)O)cc1)C(=O)O)NC(=O)[C@H](C)NC(=O)[C@H](C)NC(=O)[C@H](CCC(N)=O)NC(=O)CNC(=O)[C@H](CCC(=O)O)NC(=O)[C@H](CC(C)C)NC(=O)[C@H](Cc1ccc(O)cc1)NC(=O)[C@H](CO)NC(=O)[C@H](CO)NC(=O)[C@@H](NC(=O)[C@H](CC(=O)O)NC(=O)[C@H](CO)NC(=O)[C@@H](NC(=O)[C@H](Cc1ccccc1)NC(=O)[C@@H](NC(=O)CNC(=O)[C@H](CCC(=O)O)NC(=O)C(C)(C)NC(=O)[C@@H](N)Cc1c[nH]cn1)[C@@H](C)O)[C@@H](C)O)C(C)C)C(=O)N[C@@H](C)C(=O)N[C@@H](Cc1c[nH]c2ccccc12)C(=O)N[C@@H](CC(C)C)C(=O)N[C@H](C(=O)N[C@@H](CCCNC(=N)N)C(=O)NCC(=O)N[C@@H](CCCNC(=N)N)C(=O)N[C@@H](CCCCNC(=O)[C@@H](N)CCCCNC(=O)[C@@H](N)CCCCNC(=O)COCCOCCNC(=O)COCCOCCNC(=O)CC[C@H](NC(=O)CCCCCCCCCCOc1ccc(C(=O)O)cc1)C(=O)O)C(=O)O)C(C)C` [Example 33], the IC50 worked out at 33 nM at human GLP-1 receptor [1] (setting [3]) and 0.31 nM at human GLP-1 receptor [1] (setting [4]). The EC50 on human GLP-1 receptor [2] (setting [5]) was found to be 0.0074 nM; at human GLP-1 receptor [2] (setting [6]) it was 0.069 nM. Besides, at human GLP-1 receptor [2], the “EC50/pM (ratio 1% HSA/0% HSA)” value came out at 11.
For the molecule `CC[C@H](C)[C@H](NC(=O)[C@H](Cc1ccccc1)NC(=O)[C@H](CCC(=O)O)NC(=O)[C@H](CCCCNC(=O)[C@@H](N)CCCCNC(=O)[C@H](CO)NC(=O)CNC(=O)[C@H](CO)NC(=O)CC[C@H](NC(=O)CCCCCCCCCCCOc1ccc(C(=O)O)cc1)C(=O)O)NC(=O)[C@H](C)NC(=O)[C@H](C)NC(=O)[C@H](CCC(N)=O)NC(=O)CNC(=O)[C@H](CCC(=O)O)NC(=O)[C@H](CC(C)C)NC(=O)[C@H](Cc1ccc(O)cc1)NC(=O)[C@H](CO)NC(=O)[C@H](CO)NC(=O)[C@@H](NC(=O)[C@H](CC(=O)O)NC(=O)[C@H](CO)NC(=O)[C@@H](NC(=O)[C@H](Cc1ccccc1)NC(=O)[C@@H](NC(=O)CNC(=O)[C@H](CCC(=O)O)NC(=O)C(C)(C)NC(=O)CCc1c[nH]cn1)[C@@H](C)O)[C@@H](C)O)C(C)C)C(=O)N[C@@H](C)C(=O)N[C@@H](Cc1c[nH]c2ccccc12)C(=O)N[C@@H](CC(C)C)C(=O)N[C@H](C(=O)N[C@@H](CCCNC(=N)N)C(=O)NCC(=O)N[C@@H](CCCNC(=N)N)C(=O)N[C@@H](CCCCNC(=O)[C@@H](N)CCCCNC(=O)[C@H](CO)NC(=O)CNC(=O)[C@H](CO)NC(=O)CC[C@H](NC(=O)CCCCCCCCCCCOc1ccc(C(=O)O)cc1)C(=O)O)C(=O)O)C(C)C` [Example 25], the IC50 at human GLP-1 receptor [1] (setting [3]) amounted to 274 nM. Further, the EC50 on human GLP-1 receptor [2] (setting [6]) was 0.124 nM.
Take `CC[C@H](C)[C@H](NC(=O)[C@H](Cc1ccccc1)NC(=O)[C@H](CCC(=O)O)NC(=O)[C@H](CCCCNC(=O)[C@@H](N)CCCCNC(=O)CC[C@H](NC(=O)CC[C@H](NC(=O)CCCCCCCCCCOc1ccc(C(=O)O)cc1)C(=O)O)C(=O)O)NC(=O)[C@H](C)NC(=O)[C@H](C)NC(=O)[C@H](CCC(N)=O)NC(=O)CNC(=O)[C@H](CCC(=O)O)NC(=O)[C@H](CC(C)C)NC(=O)[C@H](Cc1ccc(O)cc1)NC(=O)[C@H](CO)NC(=O)[C@H](CO)NC(=O)[C@@H](NC(=O)[C@H](CC(=O)O)NC(=O)[C@H](CO)NC(=O)[C@@H](NC(=O)[C@H](Cc1ccccc1)NC(=O)[C@@H](NC(=O)CNC(=O)[C@H](CCC(=O)O)NC(=O)C(C)(C)NC(=O)[C@@H](N)Cc1c[nH]cn1)[C@@H](C)O)[C@@H](C)O)C(C)C)C(=O)N[C@@H](C)C(=O)N[C@@H](Cc1c[nH]c2ccccc12)C(=O)N[C@@H](CC(C)C)C(=O)N[C@H](C(=O)N[C@@H](CCCNC(=N)N)C(=O)NCC(=O)N[C@@H](CCCNC(=N)N)C(=O)N[C@@H](CCCCNC(=O)[C@@H](N)CCCCNC(=O)CC[C@H](NC(=O)CC[C@H](NC(=O)CCCCCCCCCCOc1ccc(C(=O)O)cc1)C(=O)O)C(=O)O)C(=O)O)C(C)C` [Example 40, N^ε26-[(2S)-2-amino-6-[[(4S)-4-carboxy-4-[[(4S)-4-carboxy-4-[11-(4-carboxyphenoxy)undecanoylamino]butanoyl]amino]butanoyl]amino]hexanoyl], N^ε37-[(2S)-2-amino-6-[[(4S)-4-carboxy-4-[[(4S)-4-carboxy-4-[11-(4-carboxyphenoxy)undecanoylamino]butanoyl]amino]butanoyl]amino]hexanoyl]-[Aib^8,Arg^34,Lys^37]-GLP-1-(7-37)-peptide]: the values for the IC50 on human GLP-1 receptor [1] (setting [3]) and at human GLP-1 receptor [1] (setting [4]) were 195 nM and 0.03 nM, respectively. For the same molecule, on human GLP-1 receptor [2] (setting [5]), the EC50 was found to be 0.0026 nM.
For `CC[C@H](C)[C@H](NC(=O)[C@H](Cc1ccccc1)NC(=O)[C@H](CCC(=O)O)NC(=O)[C@H](CCCCNC(=O)[C@@H](N)CCCCNC(=O)CC[C@H](NC(=O)CC[C@H](NC(=O)CCCCCCCCCCOc1ccc(C(=O)O)cc1)C(=O)O)C(=O)O)NC(=O)[C@H](C)NC(=O)[C@H](C)NC(=O)[C@H](CCC(N)=O)NC(=O)[C@H](CCC(=O)O)NC(=O)[C@H](CCC(=O)O)NC(=O)[C@H](CC(C)C)NC(=O)[C@H](Cc1ccc(O)cc1)NC(=O)[C@H](CO)NC(=O)[C@H](CO)NC(=O)[C@@H](NC(=O)[C@H](CC(=O)O)NC(=O)[C@H](CO)NC(=O)[C@@H](NC(=O)[C@H](Cc1ccccc1)NC(=O)[C@@H](NC(=O)CNC(=O)[C@H](CCC(=O)O)NC(=O)C(C)(C)NC(=O)[C@@H](N)Cc1c[nH]cn1)[C@@H](C)O)[C@@H](C)O)C(C)C)C(=O)N[C@@H](CCC(=O)O)C(=O)N[C@@H](Cc1c[nH]c2ccccc12)C(=O)N[C@@H](CC(C)C)C(=O)N[C@H](C(=O)N[C@@H](CCCNC(=N)N)C(=O)NCC(=O)N[C@@H](CCCNC(=N)N)C(=O)N[C@@H](CCCCNC(=O)[C@@H](N)CCCCNC(=O)CC[C@H](NC(=O)CC[C@H](NC(=O)CCCCCCCCCCOc1ccc(C(=O)O)cc1)C(=O)O)C(=O)O)C(=O)O)C(C)C` [Example 41, N^ε26-[(2S)-2-amino-6-[[(4S)-4-carboxy-4-[[(4S)-4-carboxy-4-[11-(4-carboxyphenoxy)undecanoylamino]butanoyl]amino]butanoyl]amino]hexanoyl], N^ε37-[(2S)-2-amino-6-[[(4S)-4-carboxy-4-[[(4S)-4-carboxy-4-[11-(4-carboxyphenoxy)undecanoylamino]butanoyl]amino]butanoyl]amino]hexanoyl]-[Aib^8,Glu^22,Glu^30,Arg^34, Lys^37]-GLP-1-(7-37)-peptide] (H-H[Aib]EGTFTSDVSSYLEEQAAK([εLys-γGlu-γGlu-Undecanoyl(11-OPh(4-COOH))])EFIEWLVRGRK([εLys-γGlu-γGlu-Undecanoyl(11-OPh(4-COOH))])-OH; N-terminus and C-terminus assumed), the IC50 on human GLP-1 receptor [1] (setting [4]) was 0.03 nM. In addition, the “EC50/pM (ratio 1% HSA/0% HSA)” value on human GLP-1 receptor [2] is listed as 260.

The record behind these values is patent US10604554B2, “Double-acylated GLP-1 derivatives” (Novo Nordisk A/S, priority 2012, dated 2020).
